Read-outs that look alike come from different tables or passages of the source.
What was measured:
thromboxane synthesis = test: Thromboxane synthesis in clotting blood (serum TxB2 by radioimmunoassay); format: cell-based; conditions: human blood clotted 60 min at 37°C
Description: Test compounds were added in a series of concentrations ranging from 10^-7 M to 10^-3 M to samples of blood from healthy human subjects, who had not taken cyclooxygenase inhibitors (acetylsalicylic acid, non-steroidal antiinflammatory agents) for at least two weeks. The blood samples were allowed to clot for 60 min in a bath at 37°C, and then centrifuged at 2500 x g for 10 min. The serum was separated and kept frozen at -20°C for the determination of TxB2 by radioimmunoassay. TxB2 is the stable metabolite into which thromboxane A2 is rapidly converted.

rabbit aortae = test: Vascular relaxation of precontracted aortic rings in vitro; format: cell-based; conditions: for EC50: Oryctolagus cuniculus, read-out: calculated EC50
Description: The ability to induce vascular relaxation by acting as a donor of nitric oxide was tested in vitro on rabbit aortae. Rings of aortae were suspended in a Krebs-Henseleit solution at 37°C, submitted to a 1 g tension and connected to a force transducer.

[1] = test system: platelet-rich plasma (PRP); test: Platelet aggregation in platelet-rich plasma (aggregometer, light transmittance); format: cell-based; conditions: for IC50: Homo sapiens, Platelet, 10 min, 10 min incubation
Description: Platelet aggregation experiments were performed on platelet-rich plasma (PRP) prepared from blood of healthy human subjects, who had not taken cyclooxygenase inhibitors (acetylsalicylic acid, non-steroidal antiinflammatory agents) for at least two weeks. Blood was collected in test tubes containing a 3.2 % sodium citrate solution (1/10 of blood volume) and immediately centrifuged at 150 x g for 15 minutes. Samples of PRP were further centrifuged at 12,000 x g in order to obtain platelet-poor plasma (PPP), used for calibration of light transmittance of the double-channel aggregometer, fixing the transmittance of PRP as 10 % and that of PPP as 90 %. Platelet aggregation in PRP of each subject was tested measuring the percent increase in transmittance under the addition of increasing amounts of sodium arachidonate, in concentrations in the range from 300 to 900 µM, or of collagen, in concentrations in the range from 0.5 to 2.5 µg/ml, or of U-46619, in concentrations in the range from 0.2 to 1.6 µM. […] In this way the threshold concentration, i.e., the concentration inducing a submaximal irreversible aggregation was assessed in each subject with the three agents.
PRP samples of subjects not responding to the maximal concentrations were discarded.

[2] = test system: transcellular synthesis of prostacyclin; test: Transcellular prostacyclin synthesis: PRP layered on acetylsalicylic acid-pretreated endothelial cells (6-keto-prostaglandin F1α by radioimmunoassay); format: cell-based, bovine
Description: The effects on the transcellular synthesis of prostacyclin from endoperoxides generated in platelets were assessed by layering platelet rich plasma (PRP), obtained from healthy human subjects as described above, on cultured bovine endothelial cells (5 x 10^5 cells/well). The endothelial cells were pretreated with acetylsalicylic acid (10^-4 M) in order to inhibit the direct synthesis of endoperoxides, and washed twice with Dulbecco's phosphate buffered saline. Then to individual samples of endothelial cells there were added at 37°C while shaking on an oscillating platform, 0.5 ml of PRP samples pretreated with the test compounds in various concentrations, ranging from 10^-7 M to 10 ^-3 M. Collagen (0.5 µg/ml) was then added to each sample. After 2 minutes of contact at 37°C, PRP was removed and centrifuged at 12,000 x g, and the supernatant was frozen and kept at -20°C for the determination of 6-keto-prostaglandin F1α by radioimmunoassay.
6-Keto-prostaglandin F1α is a stable metabolite into which prostacyclin is rapidly converted.

[3] = rabbit aortic rings contracted with norepinephrine (10^-6 M)
[4] = human PRP on acetylsalicylic acid-treated bovine endothelial cells, collagen 0.5 µg/ml

SMILES | IC50 (thromboxane synthesis; 1 h, read-out: IC50 (inhibit thromboxane synthesis)) [µM] | EC50 (rabbit aortae; norepinephrine-contracted rabbit aortic rings, methylene blue 10^-5 M in the bath) [µM] | EC50 (rabbit aortae; [3]) [µM] | relaxation in aortic rings (rabbit aortae; aortic rings contracted with 5-hydroxytryptamine) | relaxation in aortic rings (rabbit aortae; aortic rings contracted with U-46619) | concentration inducing a complete relaxation of the aortic ring (rabbit aortae; [3]) | IC50 ([1]; aggregation induced by U-46619 (threshold concentration)) [µM] | IC50 ([1]; aggregation induced by arachidonic acid (threshold concentration)) [µM] | IC50 ([1]; aggregation induced by collagen (threshold concentration)) [µM] | concentration from which production of the prostacyclin metabolite was increased [2, 4] | production of the prostacyclin metabolite (effect in words) [2, 4] | production of the prostacyclin metabolite (6-keto-prostaglandin F1α), level reached ([2]; human PRP on acetylsalicylic acid-treated bovine endothelial cells, collagen 0.5 µg/ml, up to) [pg/mL] | level times higher of the amount produced in basal conditions by endothelial cells not submitted to cyclooxygenase inhibition ([2]; relative to basal production of untreated endothelial cells) | effect on thromboxane synthesis (thromboxane synthesis) | inhibitory activity in the aggregation induced by collagen ([1]; human PRP, up to 10^-3 M concentrations)
COc1ccc(C(=O)N[C@H]2CC[C@H](O[N+](=O)[O-])CC2)cc1C(=O)NCc1cccnc1 [4-methoxy-N^1-(4-trans-nitrooxycyclohexyl)-N^3-(3-pyridinylmethyl)-1,3-benzenedicarboxamide] | 18 | 55 | 3.2 | similarly able to produce relaxation | similarly able to produce relaxation | 10^-4 M | 33 | 12 | 22 | 10^-6 M | markedly increased | 800 to 1600 | 8-16 times | – | –
O=C(O)Cc1ccc(CCNS(=O)(=O)c2ccc(Cl)cc2)cc1 [daltroban, p-[2-(p-chlorobenzenesulfonamido)ethyl]phenylacetic, reference compound] | – | – | – | – | – | – | – | – | – | – | did not stimulate the synthesis of prostacyclin | – | – | did not show any effect | –
O=C(O)/C=C/c1ccc(Cn2ccnc2)cc1 [ozagrel, (E)-3-[4-(1H-imidazol-1-ylmethyl)-phenyl]-2-propenoic acid, reference compound] | – | – | – | – | – | – | – | – | – | – | – | – | – | – | did not show any significant inhibitory activity
